Results reported in patent publication US20020132853A1, “Capsaicin receptor ligands” (priority 2000, published 2002).

Target: T1, human capsaicin receptor (Homo sapiens, UniProt Q8NER1)
T1 construct: expression consrtuct encoding the full length human capsaicin receptor; expressed in transfected cells
Assay: Antagonist assay for Capsaicin receptor mediated calcium mobilization
Assay type: cell-based
Conditions: Table III, read-out: EC50 (the source's name)
Protocol: Calcium Mobilization Assay
Cells transfected with expression plasmids (as described in Example 10) and thereby expressing the human capsaicin receptor are seeded and grown to 70-90% confluency in FALCON black-walled, clear-bottomed 96-well plates (#3904, BECTON-DICKINSON, Franklin Lakes, N.J.) . The culture media are emptied from the 96 well plates and FLUO-3 AM calcium sensitive dye (Molecular Probes, Eugene, OR) is added to each well (dye solution: 1 mg FLUO-3 AM, 440 uL DMSO and 440 ul 20% pluronic acid in DMSO, diluted 1:4, 50 ul diluted solution per well). Plates are covered with aluminum foil and incubated at 37° C for 1-2 hours in an environment containing 5% CO2. After the incubation the dye is emptied from the plates, and the cells are washed once with Krebs-Ringer HEPES (KRH) buffer (25 mM HEPES, 5 mM KCl, 0.96 mM NaH2PO4, 1 MM MgSO4, 2 mM CaCl2, 5 mM glucose, 1 mM probenecid, pH 7.4), and resuspended in KRH buffer.
Agonist (e.g., olvanil, capsaicin, or RTX)-induced calcium mobilization is monitored using either FLUOROSKAN ASCENT (Labsystems, Franklin, Mass.) or FLIPR (fluorometric imaging plate reader system, Molecular Devices, Sunnyvale, Calif.) instruments. Similarly, varying concentrations of the antagonists ruthenium red or capsazepine are added to cells concurrently with agonist (e.g., 25-50 nM capsaicin). For agonist-induced calcium responses, data obtained between 30 and 60 seconds after agonist application are used to generate the EC50 values. […] software (Synergy Software, Reading, Pa.) was utilized to fit the data to the equation: […]
to determine the EC50 for the response. In this equation, y is the maximum fluorescence signal, x is the concentration of the agonist or antagonist, a is the Emax, b corresponds to the EC50 or IC50 value, and finally, c is the Hill coefficient.
Assay for Determination of Capsaicin Receptor Antagonist Effects
In order to measure the ability of a test compound to antagonize (inhibit) the response of cells expressing capsaicin receptors to capsaicin or other vanilloid agonist, the EC50 of capsaicin is first determined.
An additional 20 ul of KRH buffer and 1 ul DMSO is added to each well of cells, prepared as described above. 100 ul capsaicin in KRH buffer is automatically transferred by the FLIPR instrument to each well.
Test compounds are dissolved in DMSO, diluted in 20 ul KRH buffer so that the final concentration of test compounds in the assay well is between 1 uM and 5 uM, and added to cells prepared as described above. The 96 well plates containing prepared cells and test compounds are incubated in the dark, at room temperature for 0.5-6 hours. It is important that the incubation not continue beyond 6 hours. Just prior to determining the fluorescence response, 100 ul capsaicin in KRH buffer at twice the EC50 concentration determined from the concentration response curve is automatically added by the FLIPR instrument to each well of the 96 well plate for a final sample volume of 200 ul and a final capsaicin concentration equal to the EC50. The final concentration of test compounds in the assay wells is between 1 uM and 5 uM. […] Antagonists of the capsaicin receptor decrease this response by about 20%, preferably by about 50%, and most preferably by at least 80% as compared to matched control. The concentration of antagonist required to provide a 50% decrease is the EC50 for the antagonist (also referred to as the IC50).

T1 sequence (Q8NER1 whole entry): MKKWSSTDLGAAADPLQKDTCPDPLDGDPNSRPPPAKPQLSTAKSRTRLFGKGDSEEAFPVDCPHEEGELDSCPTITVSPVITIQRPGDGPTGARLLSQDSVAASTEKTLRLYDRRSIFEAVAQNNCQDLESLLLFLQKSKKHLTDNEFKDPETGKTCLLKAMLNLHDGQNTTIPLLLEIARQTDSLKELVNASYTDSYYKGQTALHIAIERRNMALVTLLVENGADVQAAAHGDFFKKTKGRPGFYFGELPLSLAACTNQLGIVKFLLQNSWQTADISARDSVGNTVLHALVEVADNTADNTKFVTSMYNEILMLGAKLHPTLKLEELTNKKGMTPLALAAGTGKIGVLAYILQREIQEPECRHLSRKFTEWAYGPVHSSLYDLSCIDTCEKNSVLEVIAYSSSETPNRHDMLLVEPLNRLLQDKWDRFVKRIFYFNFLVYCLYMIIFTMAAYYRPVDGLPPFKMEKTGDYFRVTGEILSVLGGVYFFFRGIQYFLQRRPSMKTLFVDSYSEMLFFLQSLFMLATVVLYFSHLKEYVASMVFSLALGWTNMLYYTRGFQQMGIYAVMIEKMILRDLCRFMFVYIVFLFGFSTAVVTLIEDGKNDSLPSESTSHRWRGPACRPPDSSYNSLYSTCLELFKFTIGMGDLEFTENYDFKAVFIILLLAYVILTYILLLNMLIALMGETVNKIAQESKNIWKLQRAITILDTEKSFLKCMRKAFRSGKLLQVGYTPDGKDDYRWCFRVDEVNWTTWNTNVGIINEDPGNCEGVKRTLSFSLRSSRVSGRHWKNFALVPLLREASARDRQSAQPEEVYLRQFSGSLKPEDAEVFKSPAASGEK

| Structure (SMILES) | IC50 [nM] |
| --- | --- |
| C[C@@H]1CN(c2ncccc2Cl)CCN1C(=O)Nc1ccc(C2CCCCC2)cc1 [Compound 18, (2R)-4-(3-chloropyridin-2-yl)-N-(4-cyclohexylphenyl)-2-methylpiperazine-1-carboxamide] | < 1000 |
| C[C@@H]1CN(c2ncccc2Cl)CCN1C(=O)Nc1ccc(C(F)(F)F)cc1 [Compound 20, (2R)-4-(3-chloropyridin-2-yl)-2-methyl-N-[4-(trifluoromethyl)phenyl]piperazine-1-carboxamide] | < 1000 |
| C[C@@H]1CN(c2ncccc2Cl)CCN1C(=O)Nc1ccc(C(C)(C)C)cc1 [Compound 21, (2R)-N-(4-tert-butylphenyl)-4-(3-chlorpyridin-2-yl)-2-methylpiperazine-1-carboxamide] | < 1000 |
| CC(C)c1ccc(NC(=O)N2CCN(c3ncccc3Cl)C[C@H]2C)cc1 [Compound 22, (2R)-4-(3-chloropyridin-2-yl)-N-(4-isopropylphenyl)-2-methylpiperazine-1-carboxamide] | < 1000 |
| C[C@H]1CN(c2ncccc2Cl)CCN1C(=O)Nc1ccc(C(F)(F)F)cc1 [Compound 23, (2S)-4-(3-chloropyridin-2-yl)-N-(4-trifluoromethylphenyl)-2-methylpiperazine-1-carboxamide] | < 1000 |
| C[C@H]1CN(c2ncccc2Cl)CCN1C(=O)Nc1ccc(C(C)(C)C)cc1 [Compound 24, (2S)-N-(4-tert-butylphenyl)-4-(3-chloropyridin-2-yl)-2-methylpiperazine-1-carboxamide] | < 1000 |
| C[C@@H]1CN(c2ncccc2Cl)CCN1C(=O)Nc1ccc(N2CCCCC2)cc1 [Compound 26, (2R)-4-(3-chloropyridin-2-yl)-2-methyl-N-(4-piperidin-1-ylphenyl)piperazine-1-carboxamide] | < 1000 |
| C[C@@H]1CN(c2ncccc2Cl)CCN1C(=O)Nc1ccc(C(F)(F)F)cc1F [Compound 27, (2R)-4-(3-chloropyridin-2-yl)-N-[2-fluoro-4-(trifluoromethyl)phenyl]-2-methylpiperazine-1-carboxamide] | < 1000 |
| C[C@@H]1CN(c2ncccc2C(F)(F)F)CCN1C(=O)Nc1ccc(C(F)(F)F)cc1 [Compound 28, (2R)-2-methyl-N-[4-(trifluoromethyl)phenyl]-4-[3-(trifluoromethyl)pyridin-2-yl]piperazine-1-carboxamide] | < 1000 |
| C[C@@H]1CN(c2ncccc2C(F)(F)F)CCN1C(=O)Nc1ccc(C(C)(C)C)cc1 [Compound 29, (2R)-N-(4-tert-butylphenyl)-2-methyl-4-[3-(trifluoromethyl)pyridin-2-yl]piperazine-1-carboxamide] | < 1000 |
| CC(C)c1ccc(NC(=O)N2CCN(c3ncccc3C(F)(F)F)C[C@H]2C)cc1 [Compound 30, (2R)-N-(4-isopropylphenyl)-2-methyl-4-[3-(trifluoromethyl)pyridin-2-yl]piperazine-1-carboxamide] | < 1000 |
| CC1CN(c2ncccc2Cl)CC(C)N1C(=O)Nc1ccc(C(F)(F)F)cc1 (stereo not drawn) [Compound 31, 4-(3-chloropyridin-2-yl)-2,6-dimethyl-N-[4-(trifluoromethyl)phenyl]piperazine-1-carboxamide] | < 1000 |
| CC1CN(c2ncccc2Cl)CC(C)N1C(=O)Nc1ccc(C(C)(C)C)cc1 (stereo not drawn) [Compound 32, N-(4-tert-butylphenyl)-4-(3-chloropyridin-2-yl)-2,6-dimethylpiperazine-1-carboxamide] | < 1000 |
| CC(C)c1ccc(NC(=O)N2C(C)CN(c3ncccc3Cl)CC2C)cc1 (stereo not drawn) [Compound 33, 4-(3-chloropyridin-2-yl)-N-(4-isopropylphenyl)-2,6-dimethylpiperazine-1-carboxamide] | < 1000 |
| C[C@@H]1CN(c2ncccc2C(F)(F)F)CCN1C(=O)Nc1ccc(C2CCCCC2)cc1 [Compound 34, (2R)-N-(4-cyclohexylphenyl)-2-methyl-4-[3-(trifluoromethyl)pyridin-2-yl]piperazine-1-carboxamide] | < 1000 |
